{"source": "patent US9518064B2", "about": "“Imidazothiadiazole and imidazopyridazine derivatives as protease activated receptor 4 (PAR4) inhibitors for treating platelet aggregation” (BRISTOL-MYERS SQUIBB COMPANY, priority 2012, dated 2016)", "data": [{"biological_target": "PAR4 (Homo sapiens (Human), UniProt Q96RI0)", "sequence (Q96RI0 18-385)": "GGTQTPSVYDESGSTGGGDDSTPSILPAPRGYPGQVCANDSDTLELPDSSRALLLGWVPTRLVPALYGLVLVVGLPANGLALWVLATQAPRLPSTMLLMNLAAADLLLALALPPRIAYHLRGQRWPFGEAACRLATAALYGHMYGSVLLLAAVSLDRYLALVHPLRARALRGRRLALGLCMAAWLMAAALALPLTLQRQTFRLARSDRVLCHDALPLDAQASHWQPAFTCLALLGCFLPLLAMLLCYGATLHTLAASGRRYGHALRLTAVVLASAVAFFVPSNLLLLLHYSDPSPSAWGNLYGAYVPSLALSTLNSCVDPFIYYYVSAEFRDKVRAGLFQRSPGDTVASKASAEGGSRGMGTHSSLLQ", "assay": "FLIPR assay in PAR4-expressing HEK293 cells (calcium mobilization)", "assay_type": "cell-based", "settings": "PAR4 antagonist activity, FLIPR assay as described in Example A", "units": {"IC50": "nM"}, "values": [{"compound": "COc1cc(OCc2cccc(-c3ccc(O)cn3)c2)c2cc(-c3cn4nc(OC)sc4n3)oc2c1", "note": "[Example 91]", "IC50": 9.05}, {"compound": "COc1cc(OCc2cccc(-c3cnc(OC)nc3)c2)c2cc(-c3cn4nc(C)ccc4n3)oc2c1", "note": "[Example 82, 2-(6-Methoxy-4-((3-(2-methoxypyrimidin-5-yl)benzyl)oxy)benzofuran-2-yl)-6-methylimidazo[1,2-b]pyridazine]", "IC50": 1.32}, {"compound": "COc1cc(OCc2cccc(-c3ccc(C(=O)N(C)C)cc3)n2)c2cc(-c3cn4nc(OC)sc4n3)oc2c1", "note": "[Example 96, 4-(6-(((6-Methoxy-2-(2-methoxyimidazo[2,1-b][1,3,4]thiadiazol-6-yl)benzofuran-4-yl)oxy)methyl)pyridin-2-yl)-N,N-dimethylbenzamide]", "IC50": 0.23}, {"compound": "COc1cc(OCc2cccc(-c3ccc4nncn4c3)c2)c2cc(-c3cn4nc(OC)sc4n3)oc2c1", "note": "[Example 22]", "IC50": 23.6}, {"compound": "COc1cc(OCc2ccnc(C3COc4ccccc4O3)n2)c2cc(-c3cn4nc(OC)sc4n3)oc2c1", "note": "(stereo not drawn) [Example 104]", "IC50": 0.85}, {"compound": "COc1cc(OCc2cc(F)cc(-c3ncc(F)cc3F)c2)c2cc(-c3cn4nc(OC)sc4n3)oc2c1", "note": "[Example 70]", "IC50": 1.48}, {"compound": "COc1cc(OCc2ccnc(-c3cccc(C#N)c3)n2)c2cc(-c3cn4nc(OC)sc4n3)oc2c1", "note": "[Example 99]", "IC50": 48.7}, {"compound": "COc1cc(OCc2cncc(-c3ccoc3)c2)c2cc(-c3cn4nc(OC)sc4n3)oc2c1", "note": "[Example 65, 6-(4-((5-(Furan-3-yl)pyridin-3-yl)methoxy)-6-methoxybenzofuran-2-yl)-2-methoxyimidazo[2,1-b][1,3,4]thiadiazole]", "IC50": 1.08}, {"compound": "COc1cc(OCc2cccc(-c3ccsc3)c2)c2cc(-c3cn4nc(OC)sc4n3)oc2c1", "note": "[Example 9]", "IC50": 1.26}, {"compound": "COc1cc(OCc2cccc(C3CCCCC3)c2)c2cc(-c3cn4nc(OC)sc4n3)oc2c1", "note": "[Example 95]", "IC50": 0.69}, {"compound": "COc1cc(OCc2cccc(-c3ccc(F)nc3)c2)c2cc(-c3cn4nc(OC)sc4n3)oc2c1", "note": "[Example 7]", "IC50": 1.29}, {"compound": "COc1cc(OCc2cccc(-c3ccc(OC4CCCCO4)cn3)c2)c2cc(-c3cn4nc(OC)sc4n3)oc2c1", "note": "(stereo not drawn) [Example 89]", "IC50": 0.79}, {"compound": "COc1cc(OCc2cccc(-c3cnc(OC)nc3OC)c2)c2cc(-c3cn4nc(OC)sc4n3)oc2c1", "note": "[Example 19]", "IC50": 2.42}, {"compound": "COc1cc(OCc2cccc(-c3ncc(Cl)cc3Cl)c2)c2cc(-c3cn4nc(OC)sc4n3)oc2c1", "note": "[Example 54]", "IC50": 1.47}, {"compound": "COc1cc(OCc2cccc(-c3ncccc3C#N)c2)c2cc(-c3cn4nc(OC)sc4n3)oc2c1", "note": "[Example 46]", "IC50": 1.64}, {"compound": "COc1cc(OCc2cccc(-c3ccc(O)cc3)c2)c2cc(-c3cn4nc(OC)sc4n3)oc2c1", "note": "[Example 90]", "IC50": 4.91}, {"compound": "COc1cc(OCc2cccc(-c3ccc(C)cn3)c2)c2cc(-c3cn4nc(OC)sc4n3)oc2c1", "note": "[Example 25]", "IC50": 2.04}, {"compound": "COc1cc(OCc2cccc(C3(O)CCOCC3)n2)c2cc(-c3cn4nc(OC)sc4n3)oc2c1", "note": "[Example 109, 4-(6-(((6-Methoxy-2-(2-methoxyimidazo[2,1-b][1,3,4]thiadiazol-6-yl)benzofuran-4-yl)oxy)methyl)pyridin-2-yl)tetrahydro-2H-pyran-4-ol]", "IC50": 0.45}, {"compound": "COc1cc(OCc2ccnc(C3(c4ccccc4)CC3)n2)c2cc(-c3cn4nc(OC)sc4n3)oc2c1", "note": "[Example 105]", "IC50": 1.06}, {"compound": "COc1cc(OCc2cccc(-c3cnc(OC)nc3)n2)c2cc(-c3cn4nc(OC)sc4n3)oc2c1", "note": "[Example 77]", "IC50": 2.18}, {"compound": "COc1cc(OCc2cccc(C3CCOCC3)c2)c2cc(-c3cn4nc(OC)sc4n3)oc2c1", "note": "[Example 92, 2-Methoxy-6-(6-methoxy-4-((3-(tetrahydro-2H-pyran-4-yl)benzyl)oxy)benzofuran-2-yl)imidazo[2,1-b][1,3,4]thiadiazole]", "IC50": 0.72}, {"compound": "COc1cc(OCc2cccc(-c3ccc(C(C)O)cn3)c2)c2cc(-c3cn4nc(OC)sc4n3)oc2c1", "note": "(stereo not drawn) [Example 87, 1-(6-(3-(((6-Methoxy-2-(2-methoxyimidazo[2,1-b][1,3,4]thiadiazol-6-yl)benzofuran-4-yl)oxy)methyl)phenyl)pyridin-3-yl)ethanol]", "IC50": 1.11}, {"compound": "COc1cc(OCc2cncc(-c3ccccc3)c2)c2cc(-c3cn4nc(OC)sc4n3)oc2c1", "note": "[Example 72]", "IC50": 7.19}, {"compound": "COc1cc(OCc2cccc(-c3ccc(OC4CCCCO4)cc3)c2)c2cc(-c3cn4nc(OC)sc4n3)oc2c1", "note": "(stereo not drawn) [Example 88]", "IC50": 1.1}, {"compound": "COc1cc(OCc2cccc(-c3cccnc3)c2)c2cc(-c3cn4nc(OC)sc4n3)oc2c1", "note": "[Example 15]", "IC50": 6.4}, {"compound": "COc1cc(OCc2cccc(-c3ncccn3)c2)c2cc(-c3cn4nc(OC)sc4n3)oc2c1", "note": "[Example 3, 2-Methoxy-6-(6-methoxy-4-((3-(pyrimidin-2-yl)benzyl)oxy)benzofuran-2-yl)imidazo[2,1-b][1,3,4]thiadiazole]", "IC50": 3.08}, {"compound": "COc1cc(OCc2ccnc(-c3csc(C)n3)n2)c2cc(-c3cn4nc(OC)sc4n3)oc2c1", "note": "[Example 102]", "IC50": 0.72}, {"compound": "COc1cnc(-c2cccc(COc3cc(Cl)cc4oc(-c5cn6nc(OC)sc6n5)cc34)c2)cn1", "note": "[Example 108, 6-(6-Chloro-4-((3-(5-methoxypyrazin-2-yl)benzyl)oxy)benzofuran-2-yl)-2-methoxyimidazo[2,1-b][1,3,4]thiadiazole]", "IC50": 1.43}, {"compound": "COc1cc(COc2cc(OC)cc3oc(-c4cn5nc(OC)sc5n4)cc23)cc(-c2ccc(Cl)nc2)c1", "note": "[Example 66, 6-(4-((3-(6-Chloropyridin-3-yl)-5-methoxybenzyl)oxy)-6-methoxybenzofuran-2-yl)-2-methoxyimidazo[2,1b][1,3,4]thiadiazole]", "IC50": 0.57}, {"compound": "COc1cc(OCc2cccc(-c3ncc(F)cc3F)c2)c2cc(-c3cn4nc(OC)sc4n3)oc2c1", "note": "[Example 33]", "IC50": 0.67}, {"compound": "COc1cc(OCc2cccc(-c3ccc(C(C)OC4CCCCO4)cn3)c2)c2cc(-c3cn4nc(OC)sc4n3)oc2c1", "note": "(stereo not drawn) [Example 86, 2-Methoxy-6-(6-methoxy-4-((3-(5-(1-((tetrahydro-2H-pyran-2-yl)oxy)ethyl)pyridin-2-yl)benzyl)oxy)benzofuran-2-yl)imidazo[2,1-b][1,3,4]thiadiazole]", "IC50": 0.56}, {"compound": "COc1ccc(-c2cc(F)cc(COc3cc(OC)cc4oc(-c5cn6nc(OC)sc6n5)cc34)c2)nc1", "note": "[Example 62, 6-(4-((3-Fluoro-5-(5-methoxypyridin-2-yl)benzyl)oxy)-6-methoxybenzofuran-2-yl)-2-methoxyimidazo[2,1-b][1,3,4]thiadiazole]", "IC50": 0.84}, {"compound": "COc1cc(OCc2cccc(C3(F)CCOCC3)n2)c2cc(-c3cn4nc([C@H](C)F)sc4n3)oc2c1", "note": "[Example 114, (S)-2-(1-Fluoroethyl)-6-(4-((6-(4-fluorotetrahydro-2H-pyran-4-yl)pyridin-2-yl)methoxy)-6-methoxybenzo-furan-2-yl)imidazo[2,1-b][1,3,4]thiadiazole]", "IC50": 0.31}, {"compound": "COCCN(C)C(=O)c1ccc(-c2cccc(COc3cc(OC)cc4oc(-c5cn6nc(OC)sc6n5)cc34)c2)cn1", "note": "[Example 85, 5-(3-(((6-Methoxy-2-(2-methoxyimidazo[2,1-b][1,3,4]thiadiazol-6-yl)benzofuran-4-yl)oxy)methyl)phenyl)-N-(2-methoxyethyl)-N-methylpicolinamide]", "IC50": 1.49}, {"compound": "COc1ccc(-c2cccc(COc3cc(OC)cc4oc(-c5cn6nc(OC)sc6n5)cc34)n2)cc1", "note": "[Example 78]", "IC50": 0.95}, {"compound": "COc1cc(OCc2cccc(-c3nc(CO)c(C)s3)c2)c2cc(-c3cn4nc(OC)sc4n3)oc2c1", "note": "[Example 106, (2-(3-(((6-Methoxy-2-(2-methoxyimidazo[2,1-b][1,3,4]thiadiazol-6-yl)benzofuran-4-yl)oxy)methyl)phenyl)-5-methylthiazol-4-yl)methanol]", "IC50": 1.59}, {"compound": "COc1cc(OCc2cccc(-c3ccnc(C)c3)c2)c2cc(-c3cn4nc(OC)sc4n3)oc2c1", "note": "[Example 27]", "IC50": 4.29}, {"compound": "COc1cc(OCc2cccc(-c3ccc(C(=O)O)nc3)c2)c2cc(-c3cn4nc(OC)sc4n3)oc2c1", "note": "[Example 84, 5-(3-(((6-Methoxy-2-(2-methoxyimidazo[2,1-b][1,3,4]thiadiazol-6-yl)benzofuran-4-yl)oxy)methyl)phenyl)picolinic acid]", "IC50": 65}, {"compound": "COc1cc(OCc2cccc(-c3cnc(C#N)cn3)c2)c2cc(-c3cn4nc(OC)sc4n3)oc2c1", "note": "[Example 42]", "IC50": 1.05}, {"compound": "COc1cc(OCc2cccc(-c3cnn(C)c3)c2)c2cc(-c3cn4nc(OC)sc4n3)oc2c1", "note": "[Example 10]", "IC50": 3.55}, {"compound": "COCOc1cnc(-c2cccc(COc3cc(OC)cc4oc(-c5cn6nc(OC)sc6n5)cc34)c2)cn1", "note": "[Example 58]", "IC50": 1.22}, {"compound": "COc1cc(OCc2cccc(-c3ccc(Cl)nc3)c2)c2cc(-c3cn4nc(OC)sc4n3)oc2c1", "note": "[Example 56]", "IC50": 0.74}, {"compound": "COc1cc(OCc2cc(F)cc(-c3cnc(OC)nc3)c2)c2cc(-c3cn4nc(OC)sc4n3)oc2c1", "note": "[Example 83, 6-(4-((3-Fluoro-5-(2-methoxypyrimidin-5-yl)benzyl)oxy)-6-methoxybenzofuran-2-yl)-2-methoxyimidazo[2,1-b][1,3,4]thiadiazole]", "IC50": 0.39}, {"compound": "COc1cc(OCc2cccc(-c3cnc(F)c(C)c3)c2)c2cc(-c3cn4nc(OC)sc4n3)oc2c1", "note": "[Example 38]", "IC50": 0.68}, {"compound": "COc1cc(OCc2cccc(-c3cccnc3F)c2)c2cc(-c3cn4nc(OC)sc4n3)oc2c1", "note": "[Example 45]", "IC50": 1.03}, {"compound": "COc1cc(OCc2cccc(-c3ncc(Cl)cc3C)c2)c2cc(-c3cn4nc(OC)sc4n3)oc2c1", "note": "[Example 52]", "IC50": 0.56}, {"compound": "COc1cc(OCc2cccc(-c3cnc4ccccn34)c2)c2cc(-c3cn4nc(OC)sc4n3)oc2c1", "note": "[Example 21]", "IC50": 7.34}, {"compound": "COc1cc(OCc2cccc(-c3cc4ccccc4s3)c2)c2cc(-c3cn4nc(OC)sc4n3)oc2c1", "note": "[Example 4]", "IC50": 9.35}, {"compound": "COc1ncc(-c2cccc(COc3cc(Cl)cc4oc(-c5cn6nc(OC)sc6n5)cc34)c2)cn1", "note": "[Example 107, 6-(6-Chloro-4-((3-(2-methoxypyrimidin-5-yl)benzyl)oxy)benzofuran-2-yl)-2-methoxyimidazo[2,1-b][1,3,4]thiadiazole]", "IC50": 1.09}, {"compound": "COc1cc(OCc2ccnc(C3CC3)n2)c2cc(-c3cn4nc(OC)sc4n3)oc2c1", "note": "[Example 103]", "IC50": 1.39}, {"compound": "COc1cc(OCc2cccc(-c3cnc(OC)cc3C)c2)c2cc(-c3cn4nc(OC)sc4n3)oc2c1", "note": "[Example 51]", "IC50": 1.19}]}]}
